# ChEMBL document CHEMBL1137529, “Syntheses and optimization of new GS39783 analogues as positive allosteric modulators of GABA B receptors” (Bioorg Med Chem Lett, 2007)
# Legend:
# GABA-B receptor = GABA-B receptor (Homo sapiens, UniProt O75899+Q9UBS5); experiment: Activity at GABAB 1b/2 receptor expressed in CHO-K1 cells assessed as effect on GABA-induced [35S]GTP-gamma-S binding
# [1] = Partition coefficient, log P of the compound; format: physicochemical; details: octanol/water
# [2] = Solubility in water; format: physicochemical
# GABA-B receptor, sequence (Q9UBS5 whole entry): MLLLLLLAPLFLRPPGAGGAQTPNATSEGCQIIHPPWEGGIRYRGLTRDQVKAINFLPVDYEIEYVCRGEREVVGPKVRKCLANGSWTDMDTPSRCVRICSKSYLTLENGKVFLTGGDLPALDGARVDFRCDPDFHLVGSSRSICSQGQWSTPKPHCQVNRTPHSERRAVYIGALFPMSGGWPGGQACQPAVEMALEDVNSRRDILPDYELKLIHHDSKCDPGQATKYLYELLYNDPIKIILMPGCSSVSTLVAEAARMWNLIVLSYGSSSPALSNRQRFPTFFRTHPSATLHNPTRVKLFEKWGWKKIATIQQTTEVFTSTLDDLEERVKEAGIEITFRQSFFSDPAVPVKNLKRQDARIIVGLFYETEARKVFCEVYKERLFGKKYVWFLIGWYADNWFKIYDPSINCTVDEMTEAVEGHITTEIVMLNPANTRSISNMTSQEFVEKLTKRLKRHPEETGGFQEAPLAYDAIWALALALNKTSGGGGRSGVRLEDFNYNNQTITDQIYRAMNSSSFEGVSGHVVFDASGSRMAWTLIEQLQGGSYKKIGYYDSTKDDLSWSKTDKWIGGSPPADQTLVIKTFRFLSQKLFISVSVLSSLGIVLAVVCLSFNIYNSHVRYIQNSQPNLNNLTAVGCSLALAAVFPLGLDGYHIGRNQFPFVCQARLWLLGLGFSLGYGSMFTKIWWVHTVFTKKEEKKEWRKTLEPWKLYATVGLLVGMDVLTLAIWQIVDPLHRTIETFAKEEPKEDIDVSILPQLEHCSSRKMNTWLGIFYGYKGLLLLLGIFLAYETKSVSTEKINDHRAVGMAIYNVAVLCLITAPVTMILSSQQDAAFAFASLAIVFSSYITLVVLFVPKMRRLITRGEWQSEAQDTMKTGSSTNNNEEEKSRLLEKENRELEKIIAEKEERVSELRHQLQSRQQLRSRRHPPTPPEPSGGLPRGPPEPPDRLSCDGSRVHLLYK
# GABA-B receptor, sequence (O75899 whole entry): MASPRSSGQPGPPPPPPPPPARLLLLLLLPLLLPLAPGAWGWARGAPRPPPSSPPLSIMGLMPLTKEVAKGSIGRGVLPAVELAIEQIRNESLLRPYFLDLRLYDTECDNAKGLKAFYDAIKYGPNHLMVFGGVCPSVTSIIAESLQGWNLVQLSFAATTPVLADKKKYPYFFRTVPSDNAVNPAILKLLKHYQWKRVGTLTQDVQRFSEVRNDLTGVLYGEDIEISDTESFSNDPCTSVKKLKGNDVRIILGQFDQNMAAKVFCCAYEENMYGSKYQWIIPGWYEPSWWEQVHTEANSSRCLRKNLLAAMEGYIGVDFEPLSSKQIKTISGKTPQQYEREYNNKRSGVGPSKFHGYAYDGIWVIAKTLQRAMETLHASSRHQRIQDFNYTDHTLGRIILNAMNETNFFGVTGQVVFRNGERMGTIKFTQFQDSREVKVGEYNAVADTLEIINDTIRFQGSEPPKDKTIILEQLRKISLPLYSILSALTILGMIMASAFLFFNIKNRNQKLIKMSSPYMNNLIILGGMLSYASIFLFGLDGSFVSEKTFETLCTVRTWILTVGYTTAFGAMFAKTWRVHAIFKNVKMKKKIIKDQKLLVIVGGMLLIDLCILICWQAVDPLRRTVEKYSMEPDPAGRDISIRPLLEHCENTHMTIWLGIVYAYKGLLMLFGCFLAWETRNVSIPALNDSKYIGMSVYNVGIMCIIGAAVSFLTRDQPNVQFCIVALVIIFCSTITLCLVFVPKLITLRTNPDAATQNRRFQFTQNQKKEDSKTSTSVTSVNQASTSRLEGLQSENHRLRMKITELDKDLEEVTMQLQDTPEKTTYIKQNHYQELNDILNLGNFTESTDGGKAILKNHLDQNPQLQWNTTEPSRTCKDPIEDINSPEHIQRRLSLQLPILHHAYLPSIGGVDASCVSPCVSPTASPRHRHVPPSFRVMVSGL
SMILES,EC50 (GABA-B receptor) [nM],logP [1],solubility [2] [µg/mL]
Cc1ncc(-c2ccc(C(F)(F)F)cc2)c(NC2CCCCCC2)n1,1660,,
Cc1ncc(-c2ccc(OC(F)(F)F)cc2)c(NC2CCCC2)n1,4570,,
Cc1ncc(-c2ccc(C(F)(F)F)cc2)c(NC2C3CC4CC(C3)CC2C4)n1 (configuration not stated),,> 5.9,< 10
Cc1ncc(-c2ccc(C(F)(F)F)cc2)c(NC23CC4CC(CC(C4)C2)C3)n1,,> 5.9,< 10
COc1ncc(-c2ccc(C(F)(F)F)cc2)c(N[C@@H]2C[C@@H]3CC[C@H]2C3)n1,2040,,
